Values after ≈ are worked out from the molar mass of the structure shown.
What was measured:
Experiment in all cases: microbe, parasite or virus in culture
Assay type in all cases: cell-based, Mycobacterium tuberculosis
[1] = tested on: ofloxacin (OFX)-resistant Mtb (SRI 4000); settings: for MIC: Mycobacterium tuberculosis, 168 h, read-out: MIC OFX-R, broth microdilution, 7 days at 37 °C; for MIC OFX-R: broth microdilution, 7 days at 37 °C
[2] = tested on: rifampin (RMP)-resistant Mtb (SRI 1367); settings: for MIC: Mycobacterium tuberculosis, 168 h, read-out: MIC RMP-R, broth microdilution, 7 days at 37 °C
[3] = tested on: isoniazid (INH)-resistant Mtb (SRI 1369); settings: for MIC: Mycobacterium tuberculosis, 168 h, read-out: MIC INH-R, broth microdilution, 7 days at 37 °C
[4] = broth microdilution, 7 days at 37 °C

SMILES | MIC [1] [µM] | MIC [2] [µM] | MIC [3] [µM] | MIC OFX-R [1] [µM] | MIC INH-R [3, 4] [µM] | MIC RMP-R [2, 4] [µM]
Cc1cn(CC2CN(c3ccc(N4CCN(C(=O)CNC(=O)c5cc([N+](=O)[O-])cc([N+](=O)[O-])c5)CC4)c(F)c3)C(=O)O2)nn1 (stereo not drawn) [PH-181] | 0.82 (≈ 0.501 µg/mL) | 0.82 (≈ 0.501 µg/mL) | 0.85 to 1.64 (≈ 0.52 to 1 µg/mL) | – | – | –
CC(=O)NCC(=O)N1CCN(c2ccc(N3CC(Cn4ccnn4)OC3=O)cc2F)CC1 (stereo not drawn) [PH-165] | 3.4 (≈ 1.51 µg/mL) | 6.7 (≈ 2.98 µg/mL) | 4.5 (≈ 2 µg/mL) | – | – | –
O=C(NCC(=O)N1CCN(c2ccc(N3CC(Cn4ccnn4)OC3=O)cc2F)CC1)c1ccc([N+](=O)[O-])o1 (stereo not drawn) [PH-189] | 0.03 to 0.056 (≈ 0.0163 to 0.0304 µg/mL) | – | 0.056 to 0.11 (≈ 0.0304 to 0.0597 µg/mL) | 0.03 (≈ 0.0163 µg/mL) | 0.057 to 0.12 | –
NNC(=O)c1ccncc1 [INH, Isoniazid, reference compound] | – | 0.15 (≈ 0.0206 µg/mL) | – | – | – | –
O=C(NCC(=O)N1CCN(c2ccc(N3CC(Cn4ccnn4)OC3=O)cc2F)CC1)c1cc([N+](=O)[O-])cc([N+](=O)[O-])c1 (stereo not drawn) [PH-193] | 0.052 (≈ 0.0311 µg/mL) | 0.22 (≈ 0.131 µg/mL) | 0.42 (≈ 0.251 µg/mL) | – | – | –
CCOC(=O)CC(=O)NCC(=O)N1CCN(c2ccc(N3CC(Cn4cc(C)nn4)OC3=O)cc2F)CC1 (stereo not drawn) [PH-150] | 2.9 (≈ 1.54 µg/mL) | 2.9 (≈ 1.54 µg/mL) | 2.9 (≈ 1.54 µg/mL) | – | – | –
NCC(=O)N1CCN(c2ccc(N3CC(Cn4ccnn4)OC3=O)cc2F)CC1 (stereo not drawn) [PH-172] | 3.6 (≈ 1.45 µg/mL) | 3.6 (≈ 1.45 µg/mL) | 7.2 (≈ 2.9 µg/mL) | – | – | –
CCOC(=O)CC(=O)NCC(=O)N1CCN(c2ccc(N3CC(Cn4ccnn4)OC3=O)cc2F)CC1 (stereo not drawn) [PH-169] | 1.45 (≈ 0.75 µg/mL) | 1.45 (≈ 0.75 µg/mL) | 1.45 to 2.9 (≈ 0.75 to 1.5 µg/mL) | – | – | –
Cc1cn(CC2CN(c3ccc(N4CCN(C(=O)CNC(=O)C(Cl)Cl)CC4)c(F)c3)C(=O)O2)nn1 (stereo not drawn) [PH-182] | 0.47 (≈ 0.248 µg/mL) | 0.95 (≈ 0.502 µg/mL) | 0.95 (≈ 0.502 µg/mL) | – | – | –
Cc1cn(CC2CN(c3ccc(N4CCN(C(=O)CNC(=O)c5cccnc5)CC4)c(F)c3)C(=O)O2)nn1 (stereo not drawn) [PH-185] | 1.44 (≈ 0.752 µg/mL) | 5.7 (≈ 2.98 µg/mL) | 2.9 (≈ 1.52 µg/mL) | – | – | –
Cc1cn(CC2CN(c3ccc(N4CCN(C(=O)CNC(=O)c5ccc([N+](=O)[O-])o5)CC4)c(F)c3)C(=O)O2)nn1 (stereo not drawn) [PH-145] | 0.03 to 0.056 (≈ 0.0167 to 0.0312 µg/mL) | 0.11 to 0.46 (≈ 0.0612 to 0.256 µg/mL) | 0.056 to 0.11 (≈ 0.0312 to 0.0612 µg/mL) | 0.056 (≈ 0.0312 µg/mL) | – | 0.11 (≈ 0.0612 µg/mL)
CO[C@H]1/C=C/O[C@@]2(C)Oc3c(C)c(O)c4c(O)c(c(/C=N/N5CCN(C)CC5)c(O)c4c3C2=O)NC(=O)/C(C)=C\C=C\[C@H](C)[C@H](O)[C@@H](C)[C@@H](O)[C@@H](C)[C@H](OC(C)=O)[C@@H]1C [RMP, Rifampicin, reference compound] | 0.95 (≈ 0.782 µg/mL) | – | 0.06 (≈ 0.0494 µg/mL) | – | – | –
O=C(NCC(=O)N1CCN(c2ccc(N3CC(Cn4ccnn4)OC3=O)cc2F)CC1)c1cccnc1 (stereo not drawn) [PH-195] | 0.49 (≈ 0.249 µg/mL) | 0.98 (≈ 0.498 µg/mL) | 2 (≈ 1.02 µg/mL) | – | – | –
Cc1cn(CC2CN(c3ccc(N4CCN(C(=O)CN)CC4)c(F)c3)C(=O)O2)nn1 (stereo not drawn) [PH-151] | 11.6 (≈ 4.84 µg/mL) | 5.8 (≈ 2.42 µg/mL) | 11.6 (≈ 4.84 µg/mL) | – | – | –
